Results from US20250262169A1, “METHODS OF TREATING COENZYME Q10 DEFICIENCY” (BPGbio, Inc., priority 2024, published 2025).

Columns and labels:
[1] = cited from earlier work
SH-SY5Y cell line = settings: cited from earlier work
[2] = cited from earlier work; remark: listed apart in the source
[3] = rats, oral; cited from earlier work
SH-SY5Y cells = assay: Oxidized CoQ10 levels in PABA-induced CoQ10 deficient neuronal cells; assay type: cell-based; settings: 1 mM PABA for 5 days
Excerpt: An established model of CoQ10 deficiency was used to study the effects of BPM31510 in vitro. […] A neuronal cell model of CoQ10 deficiency by treatment of the neuronal SH-SY5Y cell line with PABA has previously been established. In this model, a significant reduction of cellular ATP production and increase in mitochondrial reactive oxygen species (ROS) was observed. […] Therefore, this PABA-induced CoQ10 deficient in vitro model was used to evaluate the potency of BPM31510 to restore ATP levels and reduce mitochondrial ROS.
SH-SY5Y cells were pretreated for 5 days with 1 mM PABA or vehicle in all experiments.

COQ2 = molecular target: T1, COQ2 (Homo sapiens, UniProt Q96H96); settings: HL-60 cells; cited from earlier work
T1 construct: host or cells: HL-60 cells (endogenous enzyme)
T1 sequence (Q96H96 35-371): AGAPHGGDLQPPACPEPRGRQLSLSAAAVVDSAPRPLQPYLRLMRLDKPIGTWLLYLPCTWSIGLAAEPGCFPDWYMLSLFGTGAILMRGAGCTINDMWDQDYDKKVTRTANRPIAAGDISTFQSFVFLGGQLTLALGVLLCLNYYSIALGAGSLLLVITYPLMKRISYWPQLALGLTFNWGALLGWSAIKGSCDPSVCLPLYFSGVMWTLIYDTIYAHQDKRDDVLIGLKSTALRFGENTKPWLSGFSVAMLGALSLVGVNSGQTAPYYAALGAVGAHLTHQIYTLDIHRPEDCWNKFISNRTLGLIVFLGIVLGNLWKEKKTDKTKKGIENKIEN

[4] = young rats, after four days of dosing
[5] = CoQ10 supplementation 2.5 μM and 5 μM

COC1=C(OC)C(=O)C(C/C=C(\C)CC/C=C(\C)CC/C=C(\C)CC/C=C(\C)CC/C=C(\C)CC/C=C(\C)CC/C=C(\C)CC/C=C(\C)CC/C=C(\C)CCC=C(C)C)=C(C)C1=O [CoQ10, Coenzyme Q10]
concentration of CoQ10 in brain ([1]; 1-2 month old animals, oral administration): did not increase | CoQ10 in cerebral tissues ([1]; 12 month old and 24 month old rats, oxidized and reduced forms): accumulation of CoQ10 in cerebral tissues | concentration in heart or kidney [1, 4]: no increase | plasma, liver, and spleen concentrations [1, 4]: increased | electron transport chain (ETC) activities (SH-SY5Y cell line; [5]): unable to fully restore | mitochondrial oxidative stress (SH-SY5Y cell line; [5]): effective at significantly reducing | exogenous CoQ10 required to restore ETC activities (SH-SY5Y cell line; PABA treated SH-SY5Y): > 10 µM | correction of ATP and ROS levels (SH-SY5Y cell line; higher concentrations (>10 μM), reports in literature): not complete | solubility in water [2]: insoluble in water | orally-administered CoQ10 absorbed [3]: 2-3%

Nc1ccc(C(=O)O)cc1 [PABA, Para-aminobenzoic acid]
reduction of oxidized CoQ10 levels (SH-SY5Y cells): approximately 90% | COQ2 activity (COQ2): inhibit COQ2 activity
